{
  "source": "paper PMC4444337",
  "about": "(PLoS ONE, 2015)",
  "key": {"[1]": {"system": "RSV", "design": "method as in PMID 21148224", "details": "slow single bolus injection; cited from earlier work"}, "[2]": {"system": "RSV", "design": "method as in PMID 21148224, PMID 17722899", "details": "single administration, cited from earlier work"}, "[3]": {"system": "IL8", "assay": "IL8 in BALF (Luminex) after RSV challenge", "assay_type": "in vivo, African green monkeys", "details": "both studies", "experimental": "The following monkey-specific cytokines were determined in BALF using a Luminex bead analysis according to the manufacturer's protocol: Interleukins (IL)-1b, IL-2, IL-4, IL-5, IL-6, IL-8, IL-10, Interferons (IFN)γ, IFNα, Tumor necrosis factor (TNF)α, Regulated on Activation, Normal T Cell Expressed and Secreted (RANTES), and Macrophage inflammatory protein (MIP)-1α. The non-human primate Luminex beads for IFNγ, IFNα, and IL-10 were provided by Texas Biomedical Research Institute (Texas, USA). The beads for the remaining cytokines were obtained from Millipore (Billerica, MA, USA). The samples for cytokine determination were run in duplicates. Human cytokine standards were used for standard curves and for determination of the lower limit of detection for individual cytokines. The results were read using a Luminex 100 System (Texas, USA)."}, "[4]": {"assay": "Safety analysis: clinical symptoms, blood counts, serum chemistry", "assay_type": "in vivo, African green monkeys", "details": "compound treated vs vehicle treated groups", "experimental": "The animals were monitored for clinical symptoms such as body temperature changes indicating a fever, signs of a cold, runny nose, sneezing, loss of appetite, and body weight. Blood counts and serum chemistry were assessed every second day. The safety findings were compared between the vehicle groups and the compound groups, to identify possible compound related adverse events."}, "[5]": {"system": "RSV subgroup A strain A2", "assay": "RSV viral load (qRT-PCR, RSV-A F gene) in BALF/throat after RSV A2 challenge", "assay_type": "in vivo, African green monkeys", "details": "for Peak log VL (Median) in BALF: qRT-PCR", "experimental": "In Study 1 all animals were followed until day 13 post-inoculation, when the necropsy took place.\nIn Study 2 all animals were followed until day 15 post-inoculation, when the necropsy took place.\nBronchoalveolar lavage fluid (BALF), nasal and throat swabs and blood samples were collected every 2 days from day 1 postinfection up to day 11 (study 1) and day 13 (study 2). For BALF collection, monkeys were sedated with […] (0.02–0.05 mg/kg) administered intramuscularly to allow passage of sterile laryngoscope and endotracheal tube. BAL was performed by laryngoscopy by inserting a shortened Kendall Sovereign feeding tube and urethral catheter through the endotracheal tube and approximately 10 mL of phosphate buffer saline (10 mL, pH 7.4) was instilled and gently suctioned back into the syringe promptly to recover approximately 5–7 mL of BAL in the syringe. Later, the adjustment of the dilution was done based on urea and protein concentration. White blood cell (WBC) count from BALF was analyzed using automated blood analysis instrumentation (Antech Diagnostics, Lake Success, NY, USA).\nAll animals were challenged with 1.5mL of 1 × 10^4 pfu/mL RSV subgroup A—strain A2 virus intranasally (i.n.) and intratracheally (i.t.) on day 0. […] The virus was thawed at room temperature and immediately put on ice.\nFor each inoculation, 1.5 mL were aspirated with a 3 mL syringe. After being anesthetized with 10 mg/mL ketamine, the animals were placed in dorsal recumbency. 0.25 mL of the virus was instilled drop-by-drop into each nostril and allowed to absorb for 20 sec. Once the absorption was complete, a Kendall Sovereign Feeding Tube and Urethral Catheter, Size 5 Fr, was trimmed about one inch on each side and inserted intratracheally using a laryngoscope. Once in place, 1mL of virus was instilled and flushed into the trachea with 7 mL of air.\nRNA was extracted using a previously described protocol.\nRSV was quantified using one-Step RT-PCR Master Mix reagents (Applied Bio systems, USA). Amplification and detection were performed in a ABI PRISM 7700 Sequence Detection System (Applied Biosystems, USA) under the following conditions: an initial reverse transcription at 48°C for 30 minutes, followed by PCR activation at 95°C for 10minutes and 45 cycles of amplification (15 sec at 95°C and 1minutes at 60°C).\nThe IEC-B assay was run as control. The viral load (VL) was expressed as RSV A-F copy numbers and transformed in Δ log10 values. The limit of detection was 10 copies of RSV F gene. The antiviral effect was calculated as differences between peak VL and area under the curve (AUC) VL based on Δ log10 RSV from different groups."}, "[6]": {"system": "RSV", "details": "cited from earlier work"}, "[7]": {"system": "RSV subgroup A strain A2", "assay": "Lung histopathology (inflammation) in RSV-infected animals", "assay_type": "in vivo, African green monkeys", "experimental": "Tissues (administration site, heart, liver, lung, pancreas, skeletal muscle and trachea) were fixed in 10% phosphate-buffered formalin, paraffin-embedded, sectioned at 5 μm, stained with hematoxylin-eosin (H&E) and evaluated microscopically. For the lung, histological examination was performed on the right lung only, the left lung lobe was sampled for bioanalytical purposes. At tissue trimming, representative cross sections were taken from the cranial, mid and caudal lung lobe in all animals including the central part (with large bronchus) and the peripheral part. Three lung sections per animal (cranial, mid and caudal lobe) with two samples each (central and peripheral) were evaluated for each animal. To facilitate comparison between groups, a general overall score for inflammation was given for each lung section. Mean inflammatory scores were determined for each animal (mean of 3 lung lobes) and per dose group (S2 Fig).\nThe necropsy was performed at day 13 for Study 1 and at Day 15 for Study 2. Before necropsy, a sample for complete blood count and plasma sample was taken. Euthanasia procedures adhered to the current Report of the American Veterinary Medical Association Panel on Euthanasia. The anesthesia was performed with a combination of ketamine hydrochloride (7–15 mg/kg) and either acetylpromazine maleate (acepromazine) (0.55 mg/kg) or xylanin (Rompun) (0.6 mg/kg) followed by exsanguinations via the femoral vein. The blood taken was recorded. Thereafter, an injection of 390 mg/kg sodium pentobarbital intravenously was given. Death was defined as the cessation of respiration and of heartbeat. The necropsy was performed according to BIOQUAL SOPs and a board-certified veterinary pathologist from the Charles River Laboratories, Pathology Associates Division (PAI) was present at necropsy."}, "[8]": {"system": "RSV-A virus", "details": "read-out: EC50 on Hep2 cells, for RSV-A virus; cited from earlier work"}, "[9]": {"system": "RSV", "design": "method as in PMID 19707346, PMID 9359721", "details": "cotton rat model; cited from earlier work"}, "[10]": {"system": "RSV", "design": "method as in PMID 19707346, PMID 9359721", "details": "pediatric patients; cited from earlier work"}},
  "note": "Values joined by “and” are separate entries in the source; they are usually repeats but may differ in a detail not shown here. Equal entries are not always repeated.",
  "data": [
    {"molecule": "Cc1ccc(CCCO)c(NCc2ccc3nc(NCCCN4CCOCC4)n(Cc4nc(C)ccc4O)c3c2)c1", "note": "[TMC353121]", "values": [
      {"measurement": "Antiviral activity in rodent models of RSV infection", "setting": "[1]", "value": "significant antiviral activity"},
      {"measurement": "Antiviral effect in treated compared with untreated groups", "setting": "[2]; mice", "value": "0.5–1 log"},
      {"measurement": "Lung histopathology in mice", "setting": "[2]", "value": "improved lung histopathology"},
      {"measurement": "IL8 production in BALF, control vs treated animals", "setting": "[3]", "value": "no significant reduction in IL8 production"},
      {"measurement": "Drug related adverse events (clinical symptoms, blood counts, serum chemistry)", "setting": "[4]", "value": "no drug related adverse events were observed"},
      {"measurement": "Plasma exposure at which complete inhibition of RSV shedding was observed", "setting": "[5]; Px500 arm", "value": 0.39, "unit": "µg/mL"},
      {"measurement": "Timing of peak viral shedding", "setting": "[5]; Study 1, Px50, 3 out of 5 animals", "value": "delayed peak viral shedding from day 7 to day 9"},
      {"measurement": "Peak log VL (Median) in BALF", "setting": "[5]; Study 1, Px50, vehicle Vh1 8.15", "value": 6.88, "unit": "log10"},
      {"measurement": "Δ log (Median): reduction in peak VL vs vehicle treated group, BALF", "setting": "[5]; Study 1, Px50 vs Vh1", "value": -1.06, "unit": "log10"},
      {"measurement": "Decrease in peak VL in BALF compared with the control group", "setting": "[5]; Study 1, Tx50", "value": 1.15, "unit": "log10"},
      {"measurement": "Peak log VL (Median) in BALF", "setting": "[5]; Study 1, Tx50, vehicle Vh1 8.15", "value": "7 log10 and 7.00 log10"},
      {"measurement": "Δ log (Median): reduction in peak VL vs vehicle treated group, BALF", "setting": "[5]; Study 1, Tx50 vs Vh1", "value": -1.1, "unit": "log10"},
      {"measurement": "Peak log VL (Median) in BALF", "setting": "[5]; Study 2, Px5, vehicle Vh2 5.17", "value": 5.23, "unit": "log10"},
      {"measurement": "Δ log (Median): reduction in peak VL vs vehicle treated group, BALF", "setting": "[5]; Study 2, Px5 vs Vh2", "value": 0, "unit": "log10"},
      {"measurement": "Viral replication during the entire study", "setting": "[5]; Study 2, Px500, except one animal with a viral blip at day 10", "value": "complete inhibition of viral replication"},
      {"measurement": "Peak log VL (Median) in BALF", "setting": "[5]; Study 2, Px500, vehicle Vh2 5.17", "value": 0, "unit": "log10"},
      {"measurement": "VL in BAL 24h after the drug infusion was stopped", "setting": "[5]; Study 2, one Px500 animal, day 10, below limit of detection at day 9 in presence of drug", "value": 2, "unit": "log"},
      {"measurement": "Antiviral activity across dose groups", "setting": "[5]; from 1log10 reduction of peak viral load to complete inhibition of RSV replication", "value": "dose-dependent antiviral activity"},
      {"measurement": "Delay in peak viral shedding", "setting": "[5]; prophylactic administrations (Px50, Px5)", "value": 2, "unit": "days"},
      {"measurement": "Peak VL reduction", "setting": "[5]; therapeutic (+1day postchallenge) or prophylactic administration at exposure levels 3- to 5-fold above the EC50c", "value": 1, "unit": "log10"},
      {"measurement": "pEC50 (anti-RSV activity)", "setting": "[6]", "value": 9.9},
      {"measurement": "Lung histopathology: improvement", "setting": "[7]; Study 1, Tx50 and Px50 groups", "value": "No improvement on lung histopathology"},
      {"measurement": "Lung histopathology: inflammatory changes", "setting": "[7]; Study 2, Px5 group (as vehicle control), slight to marked degree", "value": "very pronounced (inflammatory) changes"},
      {"measurement": "Lung histopathology: inflammatory changes", "setting": "[7]; Study 2, Px500 group, minimal to occasionally slight degree", "value": "much less pronounced changes"}
    ]},
    {"molecule": "NC(=O)c1ncn([C@@H]2O[C@H](CO)[C@@H](O)[C@H]2O)n1", "note": "[ribavirin]", "values": [
      {"measurement": "EC50", "setting": "[8]", "value": 30, "unit": "µM"}
    ]},
    {"molecule": "palivizumab: humanized monoclonal antibody indicated for RSV prophylaxis in high-risk children", "values": [
      {"measurement": "Exposure level to achieve complete inhibition of the RSV shedding", "setting": "[9]", "value": 40, "unit": "µg/mL"},
      {"measurement": "Exposure levels required to achieve 50% prophylactic effectiveness", "setting": "[10]", "value": "37 to 72", "unit": "µg/mL"}
    ]}
  ]
}
